What all share (assay type): biochemical
One experiment concerns the target cSRC (h) (Homo sapiens, UniProt P12931). The experiment is described as follows: cSRC human kinase assay (glass-fiber filter). The settings on record: test concentration of 10^−6M; for inhibition at 1 µM: read-out: C3 score (inhibition of cSRC human). How it is done:
(§1) The in vitro inhibition of a panel of kinases was assessed using either the glass-fiber filter technology as described by Davies, S. P. et al., Biochem J. […] In the glass-fiber filter technology the activity of the kinase of interest is measured using an appropriate substrate that is incubated with the aforementioned kinase protein in the presence of (^33P) radiolabeled ATP. (^33P) Phosphorylation of the substrate is subsequently measured as radioactivity bound on a glass fiber-filter. All kinases are pre-diluted to a 10× working concentration prior to addition into the assay. The composition of the dilution buffer for each kinase is detailed below. […] The reaction is initiated by the addition of the MgATP mix. […] 10 μl of the reaction is then spotted onto a P30 filtermat and washed three times for 5 minutes in 75 mM phosphoric acid and once in methanol prior to drying and scintillation counting.

The target in another experiment is Lyn (h) (Homo sapiens, UniProt P07948). The experiment is described as follows: Lyn human kinase assay (glass-fiber filter). The settings on record: test concentration of 10^−6M; for inhibition at 1 µM: read-out: C10 score (inhibition of Lyn human). On the procedure: (§2) In the glass-fiber filter technology the activity of the kinase of interest is measured using an appropriate substrate that is incubated with the aforementioned kinase protein in the presence of (^33P) radiolabeled ATP. (^33P) Phosphorylation of the substrate is subsequently measured as radioactivity bound on a glass fiber-filter.
Chain of Lyn (h) (P07948 whole entry): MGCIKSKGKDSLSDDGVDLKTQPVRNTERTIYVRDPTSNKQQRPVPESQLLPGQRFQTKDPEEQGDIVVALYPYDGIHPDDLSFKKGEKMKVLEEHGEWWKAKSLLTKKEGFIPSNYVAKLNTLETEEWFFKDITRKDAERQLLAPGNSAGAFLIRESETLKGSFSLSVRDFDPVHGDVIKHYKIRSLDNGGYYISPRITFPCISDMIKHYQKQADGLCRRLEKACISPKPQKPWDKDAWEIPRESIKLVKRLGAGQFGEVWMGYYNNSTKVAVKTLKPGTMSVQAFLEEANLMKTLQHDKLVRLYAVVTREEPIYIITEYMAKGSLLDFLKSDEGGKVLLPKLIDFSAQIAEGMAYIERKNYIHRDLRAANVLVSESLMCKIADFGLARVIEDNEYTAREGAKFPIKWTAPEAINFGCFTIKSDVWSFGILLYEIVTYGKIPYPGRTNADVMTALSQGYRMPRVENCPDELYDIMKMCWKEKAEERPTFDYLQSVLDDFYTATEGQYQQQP
(§3) All kinases are pre-diluted to a 10× working concentration prior to addition into the assay. The composition of the dilution buffer for each kinase is detailed below.
In a final reaction volume of […] (h) (5-10 mU) is incubated with 50 mM Tris pH 7.5, 0.1 mM EGTA, 0.1 mM Na3VO4, 0.1% O-mercaptoethanol, 0.1 mg/ml poly(Glu, Tyr) 4:1, 10 mM MgAcetate and [γ-^33P-ATP] (specific activity approx. 500 cpm/pmol, concentration as required). The reaction is initiated by the addition of the MgATP mix. After incubation for 40 minutes at room temperature, the reaction is stopped by the addition of 5 μl of a 3% phosphoric acid solution. 10 μl of the reaction is then spotted onto a Filtennat A and washed three times for 5 minutes in 75 mM phosphoric acid and once in methanol prior to drying and scintillation counting.

The target of the next experiment is Yes (h) (Homo sapiens, UniProt P07947). The experiment is described as follows: Yes human kinase assay (glass-fiber filter). The conditions noted are these: test concentration of 10^−6M; for inhibition at 1 µM: read-out: C11 score (inhibition of Yes human). How it is done:
as §2, §3
(§4) In a final reaction volume of 25 μl, Yes (h) (5-10 mU) is incubated with 8 mM MOPS pH 7.0, 0.2 mM EDTA, 0.1 mg/ml poly(Glu, Tyr) 4:1, 10 mM MgAcetate and [γ-^33P-ATP] (specific activity approx. 500 cpm/μmol, concentration as required). The reaction is initiated by the addition of the MgATP mix. After incubation for 40 minutes at room temperature, the reaction is stopped by the addition of 5 μl of a 3% phosphoric acid solution. 10 μl of the reaction is then spotted onto a Filtermat A and washed three times for 5 minutes in 75 mM phosphoric acid and once in methanol prior to drying and scintillation counting.

A further experiment concerns the target Abl (h) (Homo sapiens, UniProt P00519). Nature of the experiment: Abl human kinase assay (glass-fiber filter). The settings on record: test concentration of 10^−6M; for inhibition at 1 µM: read-out: C1 score (inhibition of Abl human). How it is done: as §2, §3
(specific activity approx. 500 cpm/pmol, concentration as required). The reaction is initiated by the addition of the MgATP mix. After incubation for 40 minutes at room temperature, the reaction is stopped by the addition of 5 μl of a 3% phosphoric acid solution. 10 μl of the reaction is then spotted onto a P30 filtermat and washed three times for 5 minutes in 75 mM phosphoric acid and once in methanol prior to drying and scintillation counting.

The target in a further experiment is EGFR (h) (Homo sapiens, UniProt P00533). The experiment is described as follows: EGFR human kinase assay (glass-fiber filter). The conditions noted are these: test concentration of 10^−6M; for inhibition at 1 µM: read-out: C4 score (inhibition of EGFR human). On the procedure: as §2, §3
Chain of EGFR (h) (P00533 25-1210): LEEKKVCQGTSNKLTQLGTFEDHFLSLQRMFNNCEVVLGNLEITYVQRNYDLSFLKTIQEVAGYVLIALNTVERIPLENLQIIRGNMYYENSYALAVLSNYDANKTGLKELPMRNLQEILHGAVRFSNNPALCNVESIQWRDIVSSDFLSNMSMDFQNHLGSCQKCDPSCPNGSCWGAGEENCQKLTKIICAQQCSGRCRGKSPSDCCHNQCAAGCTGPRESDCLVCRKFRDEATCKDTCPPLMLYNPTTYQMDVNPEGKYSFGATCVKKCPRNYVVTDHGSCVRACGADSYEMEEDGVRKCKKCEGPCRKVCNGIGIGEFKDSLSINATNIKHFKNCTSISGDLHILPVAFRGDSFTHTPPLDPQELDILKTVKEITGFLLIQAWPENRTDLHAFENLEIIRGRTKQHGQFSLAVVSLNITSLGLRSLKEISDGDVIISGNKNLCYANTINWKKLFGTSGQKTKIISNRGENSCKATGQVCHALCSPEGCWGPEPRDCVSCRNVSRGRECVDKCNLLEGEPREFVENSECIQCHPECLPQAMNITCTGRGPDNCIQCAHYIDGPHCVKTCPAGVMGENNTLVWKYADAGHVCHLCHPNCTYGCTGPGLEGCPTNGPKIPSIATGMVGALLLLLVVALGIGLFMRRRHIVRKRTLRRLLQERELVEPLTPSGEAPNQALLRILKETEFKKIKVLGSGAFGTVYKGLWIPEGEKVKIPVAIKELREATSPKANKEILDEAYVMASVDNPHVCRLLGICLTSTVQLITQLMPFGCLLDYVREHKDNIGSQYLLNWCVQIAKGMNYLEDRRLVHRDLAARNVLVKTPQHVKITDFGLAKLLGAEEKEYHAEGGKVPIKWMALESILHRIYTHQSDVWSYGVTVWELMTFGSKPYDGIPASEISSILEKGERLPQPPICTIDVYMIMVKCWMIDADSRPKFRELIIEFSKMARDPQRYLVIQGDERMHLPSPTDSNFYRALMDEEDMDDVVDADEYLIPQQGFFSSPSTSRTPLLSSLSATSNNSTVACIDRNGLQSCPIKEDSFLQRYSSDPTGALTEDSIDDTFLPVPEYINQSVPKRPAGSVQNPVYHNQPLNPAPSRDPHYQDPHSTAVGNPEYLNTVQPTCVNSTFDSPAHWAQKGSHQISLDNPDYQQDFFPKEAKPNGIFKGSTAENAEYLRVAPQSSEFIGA
as §4, with “EGFR” for “Yes”, “EDTA, 10 mM MnCl2,” for “EDTA,”, “cpm/pmol,” for “cpm/μmol,”

The target in another experiment is Fes (h) (Homo sapiens, UniProt P07332). The experiment is described as follows: Fes human kinase assay (glass-fiber filter). The settings on record: test concentration of 10^−6M; for inhibition at 1 µM: read-out: C4 score (inhibition of Fes human). How it is done: as §2, §3
as §4, with “Fes” for “Yes”, “cpm/pmol,” for “cpm/μmol,”

A further experiment deals with Lck (h) (Homo sapiens, UniProt P06239). Nature of the experiment: Lck human kinase assay (glass-fiber filter). The conditions noted are these: test concentration of 10^−6M; for inhibition at 1 µM: read-out: C9 score (inhibition of Lck human). On the procedure: as §1, with “below. [table]” for “below.”
Chain of Lck (h) (P06239 whole entry): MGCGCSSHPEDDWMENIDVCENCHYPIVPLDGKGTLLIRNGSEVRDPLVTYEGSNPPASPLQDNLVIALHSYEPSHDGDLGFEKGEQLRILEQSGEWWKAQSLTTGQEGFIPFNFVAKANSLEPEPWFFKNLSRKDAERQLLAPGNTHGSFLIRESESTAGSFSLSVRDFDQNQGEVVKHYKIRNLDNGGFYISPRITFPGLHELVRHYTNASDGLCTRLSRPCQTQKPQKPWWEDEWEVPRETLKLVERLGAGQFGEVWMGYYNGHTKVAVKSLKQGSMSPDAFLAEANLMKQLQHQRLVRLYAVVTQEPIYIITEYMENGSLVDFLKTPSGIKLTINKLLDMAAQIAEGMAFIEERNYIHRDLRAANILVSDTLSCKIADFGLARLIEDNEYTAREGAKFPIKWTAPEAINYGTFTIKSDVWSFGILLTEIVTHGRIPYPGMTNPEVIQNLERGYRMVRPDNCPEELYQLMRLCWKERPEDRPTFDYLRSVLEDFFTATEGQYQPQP
The next experiment concerns the target Flt3 (h) (Homo sapiens, UniProt P36888). Nature of the experiment: Flt3 human kinase assay (glass-fiber filter). The settings on record: test concentration of 10^−6M; read-out: C6 score (inhibition of Flt3 human). How it is done:
(§5) The in vitro inhibition of a panel of kinases was assessed using either the glass-fiber filter technology as described by Davies, S. P. et al., Biochem J. (2000), 351; p. 95-105.
as §2, §3
In a final reaction volume of 25 μl, Flt3 (h) (5-10 mU) is incubated with 8 mM MOPS pH 7.0, 0.2 mM EDTA, 50 μM […], 10 mM MgAcetate and [γ-^33P-ATP] (specific activity approx. 500 cpm/pmol, concentration as required). The reaction is initiated by the addition of the MgATP mix. After incubation for 40 minutes at room temperature, the reaction is stopped by the addition of 5 μl of a 3% phosphoric acid solution. 10 μl of the reaction is then spotted onto a P30 filtermat and washed three times for 5 minutes in 75 mM phosphoric acid and once in methanol prior to drying and scintillation counting.

The target in a further experiment is Fms (h) (Homo sapiens, UniProt P07333). Nature of the experiment: Fms human kinase assay (glass-fiber filter). The settings on record: test concentration of 10^−6M; read-out: C7 score (inhibition of Fms human). How it is done:
as §5, §2, §3
In a final reaction volume of 25 μl, Fms (h) (5-10 mU) is incubated with 8 mM MOPS pH 7.0, 0.2 mM EDTA, 250 μM […], 10 mM MgAcetate and [γ-^33P-ATP] (specific activity approx. 500 cpm/pmol, concentration as required). The reaction is initiated by the addition of the MgATP mix. After incubation for 40 minutes at room temperature, the reaction is stopped by the addition of 5 μl of a 3% phosphoric acid solution. 10 μl of the reaction is then spotted onto a P30 filtermat and washed three times for 5 minutes in 75 mM phosphoric acid and once in methanol prior to drying and scintillation counting.

Another experiment addresses GSK3B (h) (Homo sapiens, UniProt P49841). Nature of the experiment: GSK3β human kinase assay (glass-fiber filter). The conditions noted are these: test concentration of 10^−6M; read-out: C8 score (inhibition of GSK3β human). On the procedure: as §5, §2, §3
In a final reaction volume of 25 μl, GSK3B (h) (5-10 mU) is incubated with 8 mM MOPS pH 7.0, 0.2 mM EDTA, 20 μM […](p)EDEEE (phospho GS2 peptide), 10 mM MgAcetate and [γ-^33P-ATP] (specific activity approx. 500 cpm/pmol, concentration as required). The reaction is initiated by the addition of the MgATP mix. After incubation for 40 minutes at room temperature, the reaction is stopped by the addition of 5 μl of a 3% phosphoric acid solution. 10 μl of the reaction is then spotted onto a P30 filtermat and washed three times for 5 minutes in 50 mM phosphoric acid and once in methanol prior to drying and scintillation counting.

Chain of Yes (h) (P07947 whole entry): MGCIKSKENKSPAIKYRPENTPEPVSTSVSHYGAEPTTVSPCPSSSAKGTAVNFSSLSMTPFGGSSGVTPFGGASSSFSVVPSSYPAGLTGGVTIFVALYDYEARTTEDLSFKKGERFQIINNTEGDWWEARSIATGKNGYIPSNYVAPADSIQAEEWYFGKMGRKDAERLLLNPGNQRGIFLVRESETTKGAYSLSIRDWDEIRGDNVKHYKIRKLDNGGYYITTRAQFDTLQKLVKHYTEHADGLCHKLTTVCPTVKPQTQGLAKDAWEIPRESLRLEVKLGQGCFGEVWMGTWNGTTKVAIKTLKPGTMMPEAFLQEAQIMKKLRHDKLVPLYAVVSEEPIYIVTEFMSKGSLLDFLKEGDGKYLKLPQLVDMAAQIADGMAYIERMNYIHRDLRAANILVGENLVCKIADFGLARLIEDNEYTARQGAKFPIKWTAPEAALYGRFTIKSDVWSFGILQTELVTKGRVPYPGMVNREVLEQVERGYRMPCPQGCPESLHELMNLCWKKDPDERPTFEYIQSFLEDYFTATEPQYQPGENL
Chain of cSRC (h) (P12931 whole entry): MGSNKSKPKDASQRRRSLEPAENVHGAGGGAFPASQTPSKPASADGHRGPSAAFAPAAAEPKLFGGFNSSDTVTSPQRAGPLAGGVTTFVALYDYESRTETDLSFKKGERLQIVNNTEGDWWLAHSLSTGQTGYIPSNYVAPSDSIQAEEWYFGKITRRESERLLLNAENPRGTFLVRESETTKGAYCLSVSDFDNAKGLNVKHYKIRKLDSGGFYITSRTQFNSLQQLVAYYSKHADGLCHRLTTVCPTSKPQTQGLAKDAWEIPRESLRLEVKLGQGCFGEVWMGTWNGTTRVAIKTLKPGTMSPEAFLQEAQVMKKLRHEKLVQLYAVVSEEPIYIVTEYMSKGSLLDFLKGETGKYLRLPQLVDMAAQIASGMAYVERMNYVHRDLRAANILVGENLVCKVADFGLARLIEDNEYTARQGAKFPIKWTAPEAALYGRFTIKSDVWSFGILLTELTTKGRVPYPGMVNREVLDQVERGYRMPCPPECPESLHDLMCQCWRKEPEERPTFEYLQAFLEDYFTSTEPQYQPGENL
Chain of Abl (h) (P00519 whole entry): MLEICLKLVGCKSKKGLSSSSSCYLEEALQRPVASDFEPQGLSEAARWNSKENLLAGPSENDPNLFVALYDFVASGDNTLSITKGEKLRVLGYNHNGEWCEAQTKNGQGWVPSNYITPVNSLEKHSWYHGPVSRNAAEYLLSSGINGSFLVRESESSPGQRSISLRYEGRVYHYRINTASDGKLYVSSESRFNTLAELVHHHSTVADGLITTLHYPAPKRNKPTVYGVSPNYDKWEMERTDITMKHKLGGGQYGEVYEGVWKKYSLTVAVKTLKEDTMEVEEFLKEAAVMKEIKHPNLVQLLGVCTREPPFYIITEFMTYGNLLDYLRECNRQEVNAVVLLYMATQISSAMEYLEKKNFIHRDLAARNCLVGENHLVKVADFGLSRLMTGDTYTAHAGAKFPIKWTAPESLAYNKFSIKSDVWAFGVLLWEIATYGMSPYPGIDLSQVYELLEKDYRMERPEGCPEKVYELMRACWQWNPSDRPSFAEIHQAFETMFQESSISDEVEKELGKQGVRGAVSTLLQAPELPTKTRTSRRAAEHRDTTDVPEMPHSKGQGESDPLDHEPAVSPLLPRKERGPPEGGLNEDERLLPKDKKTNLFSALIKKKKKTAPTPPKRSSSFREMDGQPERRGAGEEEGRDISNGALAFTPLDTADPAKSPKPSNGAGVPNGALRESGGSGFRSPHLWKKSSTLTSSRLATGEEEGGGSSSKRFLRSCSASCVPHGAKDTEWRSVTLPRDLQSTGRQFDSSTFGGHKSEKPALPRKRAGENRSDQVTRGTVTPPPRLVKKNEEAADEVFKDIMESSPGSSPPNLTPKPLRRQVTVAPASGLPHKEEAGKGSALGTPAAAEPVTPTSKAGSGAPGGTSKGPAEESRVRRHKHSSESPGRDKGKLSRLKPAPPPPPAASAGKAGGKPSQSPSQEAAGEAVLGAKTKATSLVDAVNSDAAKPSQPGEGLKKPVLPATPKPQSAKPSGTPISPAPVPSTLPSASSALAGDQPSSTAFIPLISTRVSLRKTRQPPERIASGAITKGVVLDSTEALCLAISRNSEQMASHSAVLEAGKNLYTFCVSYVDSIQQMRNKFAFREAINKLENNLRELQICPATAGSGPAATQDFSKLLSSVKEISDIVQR
Chain of GSK3B (h) (P49841 whole entry): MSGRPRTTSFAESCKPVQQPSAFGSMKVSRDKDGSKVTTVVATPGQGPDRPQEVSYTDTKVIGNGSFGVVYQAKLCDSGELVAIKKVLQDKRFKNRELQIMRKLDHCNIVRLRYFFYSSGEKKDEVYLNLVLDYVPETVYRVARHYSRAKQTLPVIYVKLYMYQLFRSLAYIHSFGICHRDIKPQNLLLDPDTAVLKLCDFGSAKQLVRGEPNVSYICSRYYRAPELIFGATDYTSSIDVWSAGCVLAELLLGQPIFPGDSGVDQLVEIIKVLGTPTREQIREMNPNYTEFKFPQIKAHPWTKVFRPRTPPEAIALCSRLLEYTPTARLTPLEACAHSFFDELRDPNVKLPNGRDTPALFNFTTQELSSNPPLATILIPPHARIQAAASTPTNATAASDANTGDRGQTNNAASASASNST

As to `COc1ccc2cc1OCCCNC(=O)[C@H](CC(C)C)NC(=O)Cc1ccc(Cl)cc1Nc1cc(ncn1)N2` [Compound 12, 6, 2:12,8-dimetheno-7H-13,1,3,5,7,17,20-benzoxahexaazacyclotetracosine-18,21-dione, 25-chloro-1,14,15,16,17,19,20,22-octahydro-11-methoxy-19-(2-methylpropyl)-, (19S)-], the “C3 score (inhibition of cSRC human)” value at cSRC (h) is reported as 4 (Score 4=>80% inhibition). At Lyn (h), the “C10 score (inhibition of Lyn human)” value was 4 (Score 4=>80% inhibition). The “C11 score (inhibition of Yes human)” value on Yes (h) was 4 (Score 4=>80% inhibition). In addition, at Abl (h), the “C1 score (inhibition of Abl human)” value is on record as 2 (Score 2=30-60% inhibition). Moreover, the “C4 score (inhibition of EGFR human)” value on EGFR (h) is on record as 4 (Score 4=>80% inhibition). In addition, the “C4 score (inhibition of Fes human)” value at Fes (h) is 2 (Score 2=30-60% inhibition). In addition, the “C9 score (inhibition of Lck human)” value at Lck (h) is 4 (Score 4=>80% inhibition).

With `N#Cc1cnc2nc1Nc1cccc(c1)C(=O)NCCCCCOc1cccc(c1)N2` [Compound 18, 21-oxa-2,4,8,15,28-pentaazatetracyclo[20.3.1.1~3,7~.1~9,13~]octacosa-1(26),3,5,7(28),9,11,13(27),22,24-nonaene-6-carbonitrile, 14-oxo-], the inhibition at 1 µM on Flt3 (h) lay in the range of 30 to 60%; on Lyn (h), 30 to 60%; on Yes (h), 10 to 30%; at Abl (h), 10 to 30%; on EGFR (h) it was 10 to 30%; at Fms (h), 30 to 60%. Besides, the inhibition at 1 µM on Fes (h) and at Lck (h) was 10 to 30% throughout.

Consider `O=C1NCCCCCCOc2cccc(c2)Nc2ccnc(n2)Nc2cccc1c2` [Compound 21, 14-oxa-2,4,8,21,29-pentaazatetracyclo[21.3.1.1~3,7~.1~9,13~]nonacosa-1(27),3,5,7(29),9,11,13(28),23,25-nonaen-22-one], for which the inhibition at 1 µM at cSRC (h) fell in the range of 10 to 30%; at Flt3 (h), 60 to 80%; at Lyn (h), 10 to 30%; at Yes (h) it was 10 to 30%; at Abl (h), 10 to 30%; on Fms (h), 30 to 60%. Further, the inhibition at 1 µM at GSK3B (h) lay in the range of 10 to 30%; on Lck (h), 30 to 60%.

For `O=C1COc2cccc(c2)Nc2nccc(n2)Nc2cccc(c2)CN1` [Compound 23, 18-oxa-2,4,8,15,25-pentaazatetracyclo[17.3.1.1~3,7~.1~9,13~]pentacosa-1(23),3,5,7(25),9,11,13(24),19,21-nonaen-16-one], the inhibition at 1 µM on Flt3 (h) was in the range of 30 to 60%; at Abl (h), 10 to 30%; at Fes (h), 10 to 30%.

With `O=C1NCc2cccc(c2)Nc2ccnc(n2)Nc2cccc1c2` [Compound 24, 2,4,8,15,23-pentaazatetracyclo[15.3.1.1~3,7~.1~9,13~]tricosa-1(21),3,5,7(23),9,11,13(22),17,19-nonaen-16-one], the inhibition at 1 µM on cSRC (h) was 10 to 30%; at Flt3 (h), 60 to 80%; at Lyn (h), 10 to 30%; at Yes (h) it was 10 to 30%; at Abl (h), 30 to 60%; at Fms (h), 10 to 30%. On Lck (h), the inhibition at 1 µM is 30 to 60%.

In the case of `O=C1CCc2cccc(c2)Nc2cc(ncn2)Nc2cccc(c2)CN2CCN1CC2` [Compound 43, 1,8,10,12,14,23-hexaazapentacyclo[21.2.2.1~3,7~.1~9,13~.1~15,19~]triaconta-3,5,7(30),9,11,13(29),15,17,19(28)-nonaen-22-one], the inhibition at 1 µM at Flt3 (h) is 30 to 60%; on Lyn (h), 30 to 60%; on Yes (h), 10 to 30%; on EGFR (h) it was 30 to 60%; at Fms (h), 30 to 60%; at Lck (h), 10 to 30%.

Usually inhibition stands for the drop in the measured response relative to a control, in per cent.

Source of the values: patent US8148388B2, “2,4 (4,6) pyrimidine derivatives” (Janssen Pharmaceutica, N.V., priority 2004, dated 2012).
